These results are taken from article PMC8783508, “A novel D-amino acid peptide with therapeutic potential (ISAD1) inhibits aggregation of neurotoxic disease-relevant mutant Tau and prevents Tau toxicity in vitro” (Alzheimer's Research & Therapy, 2022).

What is called IC50 is the concentration that gives 50% inhibition.

Non-standard residues stand in square brackets, D forms with d. Residues, ends and D or L forms follow the SMILES beside them.

The test system of data set [1] is N2a cells expressing Tau^RDΔK. As to the kind of experiment: Uptake of FAM-labeled D-peptides by confocal microscopy. The format is cell-based. As to conditions: 25 μM FAM-labeled peptide, 24 h, fixed cells. On the procedure: In order to become potentially suitable for therapeutic development, the D-peptides should be internalized by neurons. To test this, 25 μM FAM-labeled ISAD1 or its inversed form was added to cells that express pro-aggregant mutant Tau^RDΔK for 24 h followed by cell fixation.
Fig. 7 Uptake of fluorescence-labeled D-peptides analyzed by confocal microscopy. 25 μM FAM-labeled peptides (ISAD1 and ISArev) were incubated with N2a cells expressing Tau^RDΔK for 24 h. The uptake of D-peptides was analyzed by confocal microscopy. As shown in the representative images, the peptides are mainly localized in the cytoplasm (A1, B1 Draq5 shown as red; A2 ISAD1-FAM, B2 ISAD1rev-FAM; A3, B3 merged images)

Data set [2] deals with N2a-Tau^RDΔK cells. As to the kind of experiment: MTT cytotoxicity of the peptides alone. It is filed as cell-based. To be noted: 25, 50, 100, 250 μM peptide, 24 h, n = 3. On the procedure:
Cell viability was analyzed in accordance with the manufacturer’s protocol (Roche Diagnostics, Mannheim, Germany; cell proliferation kit II (MTT)). This assay is based on the cleavage of the yellow tetrazolium salt MTT into purple formazan dye by metabolic active cells. The color changes only in viable cells and can be directly quantified using a scanning multiwell spectrophotometer. In all experiments, the cells were grown as described previously. The cells (25,000 cells/well or 80% confluence) were plated on poly D-lysine-coated 96-well plates (Greiner Bio-One GmbH, Frickenhausen, Germany) for stronger attachment from overnight to 24 h at 37 °C. Fibrillized Tau^RDΔK was generated by incubating 200 μM Tau^RDΔK in BES buffer at 37 °C for 24 h in the presence of 2 mM D-peptides (Tau^RDΔK:peptide = 1:10). Successful fibrillization was verified using ThS (5 μM Tau^RDΔK, 10 μM ThS) measurement. The aggregated Tau^RDΔK (10 μM final concentration), Tau^RDΔK (10 μM) + peptide (100 μM) samples (ISAD1 and ISAD1rev), buffer only (negative control, set to 100% cell viability), and TritonX-100 (2%, cytotoxic agent, positive control) were incubated on N2a-Tau^RDΔK cells (100 μl solution) for another 24 h. The cell viability was measured in accordance with the manufacturer’s protocol.
A MTT-based cytotoxicity assay in the presence of ISAD1 and ISAD1rev peptides. […]

For data set [3], the system named is N2a-Tau^RDΔK cells. As to the kind of experiment: LDH release with the peptides alone. As to conditions: 25, 50, 100, 250 μM peptide, 24 h, n = 3. It is filed as cell-based. On the procedure: N2a cells expressing Tau^RDΔK were plated on poly D-lysine-coated 96-well plates with a density of 25,000 cells/well. At 70 to 80% confluence, the cells were treated for 24 h with various concentrations of D-peptides (25, 50, 100, and 250 μM) or Tau^RDΔK (10 μM final concentration) in the presence of ISAD1 and ISAD1rev (100 μM final concentration). The ability of D-peptides to neutralize the toxicity of Tau^RDΔK oligomers/fibrils was investigated by measuring the amount of released LDH (Roche Diagnostics, Mannheim, Germany). Therefore, 50 μL of each well was transferred to a fresh 96-well plate and 50 μL of reagent was added followed by a 30-min incubation period at RT. Finally, 50 μL of stop solution (1 N HCl) was added and absorbance was recorded at 492 nm (TECAN spectrofluorometer, Männedorf, Switzerland). Absorbance values were corrected by background values and the percentage of LDH release was calculated.
On the technique in general: LDH in the medium is a marker of cell lysis.

The target in data set [4] is T1, Tau^FL (Homo sapiens, UniProt P10636).
T1 construct: Tau^FL Full-length human Tau (441 AA); made in house
T1 sequence (P10636 1-441 isoform P10636-8): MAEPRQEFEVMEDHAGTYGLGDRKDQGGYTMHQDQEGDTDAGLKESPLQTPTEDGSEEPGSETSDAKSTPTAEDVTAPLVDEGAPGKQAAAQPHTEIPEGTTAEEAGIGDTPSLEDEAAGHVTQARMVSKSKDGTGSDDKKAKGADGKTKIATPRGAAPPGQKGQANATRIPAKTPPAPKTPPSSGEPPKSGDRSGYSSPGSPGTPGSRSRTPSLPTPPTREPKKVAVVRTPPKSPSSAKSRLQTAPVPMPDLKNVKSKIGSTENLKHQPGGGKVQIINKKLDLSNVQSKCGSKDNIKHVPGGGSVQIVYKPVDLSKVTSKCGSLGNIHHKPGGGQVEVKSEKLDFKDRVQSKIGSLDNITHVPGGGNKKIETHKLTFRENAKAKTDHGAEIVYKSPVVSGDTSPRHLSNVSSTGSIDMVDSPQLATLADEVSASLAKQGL
As to the kind of experiment: Fibrillization of Tau^FL monitored by ThT assay. The format is biochemical. Further details: key to Inhibition of Tau^FL aggregation: (+/-) indicates comparably low inhibition of Tau^FL fibrillization; (-) indicates that the peptide showed no effect on fibril formation. As to conditions: L-peptides. The procedure:
Tau aggregation assays were performed under reducing conditions. Before the addition of heparin and peptides, a final concentration of 1 mM dithiothreitol (DTT) was added to the Tau protein solution and heated at 95 °C for 10 min. […] Final concentration of 10 μM ThT was used for monitoring fibrillization. In case of the two hexapeptides, 5 μM PHF6 and 5 μM PHF6*, respectively, without addition of the aggregation inducer heparin (16000 Da) were used for monitoring the fibrillization process. The assays were performed with 50-μl sample volume per well in a 96-well half area microtiter plate (Greiner Bio-One GmbH, Frickenhausen, Germany). The fibrillization of Tau^FL was monitored by ThT, and the relative fluorescence intensity of ThT was read out at 440 excitation/521 emission nm in a BMG microplate reader (BMG Labtech, Ortenberg, Germany).

Data set [5] has as its target T1, Tau^FL. As to the kind of experiment: ELISA of FAM-labeled peptide binding to Tau^FL. As to conditions: FAM-labelled peptide 0.1 – 200 µM, Tau^FL 5 µg/ml, n = 3. On the procedure: A 96-well microtiter plate (Greiner Bio-One GmbH, Frickenhausen, Germany) was coated with 5 μg/ml Tau^FL or fibrils in coating buffer for incubation overnight at 4 °C. For investigation of the binding properties to the hexapeptide, 5 μM PHF6 was coated overnight. After three times washing with 300 μl phosphate-buffered saline with Tween20 (PBST: PBS with 0.1 % [v/v] Tween20), the plate was blocked with 3 % [w/v] BSA in PBS for 1 h at RT, followed by further washing steps. […] The plate was washed three times with PBST before 100 μl sheep anti-fluorescein isothiocyanate (FITC) HRP-conjugate (1:5000 dilution in PBST; AbD Serotec, Puchheim, Germany) was added and incubated for 1 h at RT with gentle agitation. Again, the plate was washed for three times, followed by addition of the TMB substrate. The reaction was stopped with 20 % [v/v] H2SO4 and absorbance was measured at 450 nm.
For orientation: ELISA stands for enzyme-linked immunosorbent assay.

In the next data set the test system is Tau. To be noted: PHF6 addressing peptide; read-out: Inhibition of fibrillization of Tau (compared with the IC50 of ISAD1); cited from earlier work. On the procedure: Aggregation of Tau is the primary hallmark for the disease pathology in AD and other tauopathies. A significant inhibition of the aggregation by therapeutic molecules is considered beneficial. Our novel peptide ISAD1 inhibited the fibrillization of Tau^FL and pro-aggregant Tau^RDΔK (IC50 of ~3 μM) in concentrations which are typical for peptide inhibitors.

For `CC(C)C[C@@H](NC(=O)[C@@H](CCCCN)NC(=O)[C@@H](Cc1ccccc1)NC(=O)[C@H](NC(=O)[C@H](N)CO)C(C)C)C(=O)N[C@H](CO)C(=O)N[C@H](CC(C)C)C(=O)N[C@@H](C(=O)N[C@H](CC(=O)O)C(=O)N[C@H](C)C(=O)N[C@H](C)C(=O)N[C@H](CO)C(=O)O)[C@H](C)O` [ISAD1] (H-[dS][dV][dF][dK][dL][dS][dL][dT][dD][dA][dA][dS]-OH), in data set [1], the Intracellular localisation result is reported as “accumulated in the cytosol but were excluded from the nucleus” and the Uptake by cells entry is “almost all cells took up the D-peptides”. Moreover, the “Cytotoxicity, MTT” value in the data set with N2a-Tau^RDΔK cells [2] is reported as “do not induce toxic effects”. Moreover, the “Cytotoxicity, LDH release” value in the data set on N2a-Tau^RDΔK cells [3] is “do not induce toxic effects”.
With “SASVTSKFDALL [ISAL1sam, scrambled L-amino acid variant of ISAL1, control peptide]”, the “Inhibition of Tau^FL fibrillization, in words” value with Tau^FL [4] (ThT assay) is given as “did not inhibit”. Moreover, the “Inhibition of Tau^FL aggregation” value with Tau^FL [4] (ThT fibrillization assay) is “-”. Further, the “Binding to Tau^FL in ELISA, in words” value in the data set with Tau^FL [5] is on record as “no significant binding”.
As to TLKIVW, the IC50 in the data set with Tau is 54.1 µM.
